From US20230078764A1 (Yumanity Therapeutics, Inc., priority 2019, published 2023)
Where two headings read alike, the source gives them in different places.

Tests used:
human SCD5 = biological target: T1, human SCD5 (Homo sapiens, UniProt Q86SK9); assay: Growth inhibition of yeast strain expressing human SCD5 as sole desaturase (OLE1 deleted), OD600 readout; assay type: cell-based
T1 construct: expressed in transfected cells; host or cells: yeast strain with OLE1 deleted, plasmid-borne human SCD5 (selected in SD-Ura)
T1 sequence (Q86SK9 1-330): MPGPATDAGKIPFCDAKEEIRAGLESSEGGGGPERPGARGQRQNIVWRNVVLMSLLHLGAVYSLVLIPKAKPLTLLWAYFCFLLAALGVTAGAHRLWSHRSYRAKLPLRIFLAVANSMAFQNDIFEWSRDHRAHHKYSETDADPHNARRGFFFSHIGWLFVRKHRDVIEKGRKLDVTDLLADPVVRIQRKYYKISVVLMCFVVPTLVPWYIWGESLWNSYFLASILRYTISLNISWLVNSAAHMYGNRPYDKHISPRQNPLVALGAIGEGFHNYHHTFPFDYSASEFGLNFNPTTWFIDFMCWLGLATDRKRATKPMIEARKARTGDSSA

human SCD1 = biological target: T2, human SCD1 (Homo sapiens, UniProt O00767); assay: Growth inhibition of yeast strain expressing human SCD1 as sole desaturase (OLE1 deleted), OD600 readout; assay type: cell-based
T2 construct: expressed in transfected cells; host or cells: yeast strain with OLE1 deleted, plasmid-borne human SCD1 (selected in SD-Ura)
T2 sequence (O00767 1-359): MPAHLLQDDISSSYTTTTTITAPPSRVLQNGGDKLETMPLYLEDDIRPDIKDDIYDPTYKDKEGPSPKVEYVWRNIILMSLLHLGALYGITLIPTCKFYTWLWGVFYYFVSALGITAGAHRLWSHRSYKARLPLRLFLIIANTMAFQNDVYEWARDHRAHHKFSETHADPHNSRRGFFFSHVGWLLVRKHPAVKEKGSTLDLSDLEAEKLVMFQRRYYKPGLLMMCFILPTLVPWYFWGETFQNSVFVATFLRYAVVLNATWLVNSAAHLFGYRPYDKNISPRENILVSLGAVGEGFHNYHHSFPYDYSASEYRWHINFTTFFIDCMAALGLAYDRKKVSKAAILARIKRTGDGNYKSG

[1] = yeast strain expressing human SCD5 as sole desaturase, growth (OD600) after 40 h at 30° C., read-out: SCD5 IC50
[2] = yeast strain expressing human SCD1 as sole desaturase, growth (OD600) after 40 h at 30° C., read-out: SCD1 IC50

Compound | IC50 (human SCD5; [1]) | IC50 (human SCD1; [2]) | IC50 (human SCD5; SCD5 IC50) | IC50 (human SCD1; SCD1 IC50)
Cc1cc(NC(=O)C2=NN(C)C(=O)CC2)ncc1Cc1cccc(Cl)c1 [Compound 123, N-(5-(3-chlorobenzyl)-4-methylpyridin-2-yl)-1-methyl-6-oxo-1,4,5,6-tetrahydropyridazine-3-carboxamide] | 8940 nM | > 45000 nM |  | 
CN1N=C(C(=O)Nc2ncc(Cc3cccc(Cl)c3)cc2F)CCC1=O [Compound 124, N-(5-(3-chlorobenzyl)-3-fluoropyridin-2-yl)-1-methyl-6-oxo-1,4,5,6-tetrahydropyridazine-3-carboxamide] | 10000 nM | > 45000 nM |  | 
N#Cc1ccc(C(=O)Nc2ccc(Cc3ccc(F)c(Cl)c3)cn2)nc1 [Compound 130, N-(5-(3-chloro-4-fluorobenzyl)pyridin-2-yl)-5-cyanopicolinamide] | 40 nM | > 45000 nM |  | 
O=C(Nc1ccc(Cc2cccc(Cl)c2)cn1)c1ccc(CO)nc1 [Compound 131, N-(5-(3-chlorobenzyl)pyridin-2-yl)-6-(hydroxymethyl)nicotinamide] | 10 nM | 10 nM |  | 
Cc1nccc(C(=O)Nc2ccc(Cc3cc(F)cc(C#N)c3)cn2)n1 [Compound 134, N-(5-(3-cyano-5-fluorobenzyl)pyridin-2-yl)-2-methylpyrimidine-4-carboxamide] | 10 nM | 90 nM |  | 
O=C(Nc1ccc(Cc2cccc(Cl)c2)cn1)c1ccc(CO)cn1 [Compound 137, N-(5-(3-chlorobenzyl)pyridin-2-yl)-5-(hydroxymethyl)picolinamide] |  |  | 10 nM | 10 nM
Cc1cnc(C(=O)Nc2ccc(Cc3ccc(F)c(Cl)c3)cn2)cn1 [Compound 138, N-(5-(3-chloro-4-fluorobenzyl)pyridin-2-yl)-5-methylpyrazine-2-carboxamide] | 80 nM | 550 nM |  | 
Cn1cccc(C(=O)Nc2ccc(Cc3cccc(F)c3)cn2)c1=O [Compound 140, N-(5-(3-fluorobenzyl)pyridin-2-yl)-1-methyl-2-oxo-1,2-dihydropyridine-3-carboxamide] | 10 nM | 290 nM |  | 
O=C(Nc1ccc(Cc2cccc(F)c2)cn1)c1ccnnc1 [Compound 143, N-(5-(3-fluorobenzyl)pyridin-2-yl)pyridazine-4-carboxamide] | 370 nM | 510 nM |  | 
Cc1nccc(C(=O)Nc2ccc(Cc3cccc(F)c3)cn2)n1 [Compound 144, N-(5-(3-fluorobenzyl)pyridin-2-yl)-2-methylpyrimidine-4-carboxamide] | 10 nM | 10 nM |  | 
O=C(Nc1ccc(Cc2ccc(F)c(F)c2)cn1)c1ccc2nncn2c1 [Compound 147, N-(5-(3,4-difluorobenzyl)pyridin-2-yl)-[1,2,4]triazolo[4,3-a]pyridine-6-carboxamide] | 40 nM | 310 nM |  | 
O=C(Nc1ccc(Cc2ccc(F)c(Cl)c2)cn1)c1ccc2nncn2c1 [Compound 148, N-(5-(3-chloro-4-fluorobenzyl)pyridin-2-yl)-[1,2,4]triazolo[4,3-a]pyridine-6-carboxamide] | 10 nM | 10 nM |  | 
O=C(Nc1ccc(Cc2cc(F)cc(F)c2)cn1)c1ccc2nncn2c1 [Compound 149, N-(5-(3,5-difluorobenzyl)pyridin-2-yl)-[1,2,4]triazolo[4,3-a]pyridine-6-carboxamide] | 10 nM | 230 nM |  | 
O=C(Nc1ccc(Cc2cccc(F)c2)cn1)c1ccc2nncn2c1 [Compound 151, N-(5-(3-fluorobenzyl)pyridin-2-yl)-[1,2,4]triazolo[4,3-a]pyridine-6-carboxamide] | 80 nM | 1340 nM |  | 
O=C(Nc1ccc(Cc2cccc(F)c2)cn1)c1ccc2nccn2c1 [Compound 154, N-(5-(3-fluorobenzyl)pyridin-2-yl)imidazo[1,2-a]pyridine-6-carboxamide] | 14600 nM | > 45000 nM |  | 
O=C(Nc1ccc(Cc2cccc(Cl)c2)cn1)c1ccc2nccn2c1 [Compound 155, N-(5-(3-chlorobenzyl)pyridin-2-yl)imidazo[1,2-a]pyridine-6-carboxamide] | 7800 nM | 24700 nM |  | 
CN1N=C(C(=O)Nc2ccc(Oc3ccccc3Cl)cn2)CCC1=O [Compound 156, N-(5-(2-chlorophenoxy)pyridin-2-yl)-1-methyl-6-oxo-1,4,5,6-tetrahydropyridazine-3-carboxamide] | 28100 nM | > 45000 nM |  | 
CN1N=C(C(=O)Nc2ccc(Oc3cccc(Cl)c3)cn2)CCC1=O [Compound 157, N-(5-(3-chlorophenoxy)pyridin-2-yl)-1-methyl-6-oxo-1,4,5,6-tetrahydropyridazine-3-carboxamide] | 6650 nM | > 45000 nM |  | 

The remaining molecules from weak to strong by IC50 (human SCD5; [1]), led by results:

IC50 (human SCD5; [1]) | IC50 (human SCD1; [2]) | Compound | IC50 (human SCD5; SCD5 IC50) | IC50 (human SCD1; SCD1 IC50)
8040 nM | > 45000 nM | CN1N=C(C(=O)Nc2ccc(Oc3cccc(Cl)c3)cc2)CCC1=O [Compound 159, N-(4-(3-chlorophenoxy)phenyl)-1-methyl-6-oxo-1,4,5,6-tetrahydropyridazine-3-carboxamide] |  | 
7600 nM | 5300 nM | Cn1ncc2cc(-c3ccc(Cc4cccc(F)c4)cn3)ccc21 [Compound 153, 5-(5-(3-fluorobenzyl)pyridin-2-yl)-1-methyl-1H-indazole] |  | 
6190 nM | 10500 nM | CN1N=C(C(=O)Nc2ccc(Oc3ccc(Cl)cc3)cc2)CCC1=O [Compound 158, N-(4-(4-chlorophenoxy)phenyl)-1-methyl-6-oxo-1,4,5,6-tetrahydropyridazine-3-carboxamide] |  | 
490 nM | 1260 nM | COCc1ccc(C(=O)Nc2ccc(Cc3cccc(Cl)c3)cn2)cn1 [Compound 136, N-(5-(3-chlorobenzyl)pyridin-2-yl)-6-(methoxymethyl)nicotinamide] |  | 
230 nM | 830 nM | Cc1ccc(NC(=O)c2ccc(Cc3cccc(F)c3)cn2)nn1 [Compound 126, 5-(3-Fluorobenzyl)-N-(6-methylpyridazin-3-yl)picolinamide] |  | 
230 nM | > 45000 nM | N#Cc1ccc(C(=O)Nc2ccc(Cc3cccc(F)c3)cn2)cc1 [Compound 133, 4-cyano-N-(5-(3-fluorobenzyl)pyridin-2-yl)benzamide] |  | 
220 nM | 3120 nM | COc1cc(C(=O)Nc2ccc(Cc3cccc(F)c3)cn2)nn(C)c1=O [Compound 127, N-(5-(3-fluorobenzyl)pyridin-2-yl)-5-methoxy-1-methyl-6-oxo-1,6-dihydropyridazine-3-carboxamide] |  | 
160 nM | > 45000 nM | Cc1ncc(C(=O)Nc2ccc(Cc3cccc(F)c3)cn2)cn1 [Compound 141, N-(5-(3-fluorobenzyl)pyridin-2-yl)-2-methylpyrimidine-5-carboxamide] |  | 
100 nM | 1710 nM | Cc1ccc(C(=O)Nc2ccc(Cc3cccc(F)c3)cn2)nn1 [Compound 145, N-(5-(3-fluorobenzyl)pyridin-2-yl)-6-methylpyridazine-3-carboxamide] |  | 
60 nM | 4930 nM | Cc1cnc(C(=O)Nc2ccc(Cc3cccc(F)c3)cn2)nc1 [Compound 139, N-(5-(3-fluorobenzyl)pyridin-2-yl)-5-methylpyrimidine-2-carboxamide] |  | 
50 nM | > 45000 nM | N#Cc1ccc(C(=O)Nc2ccc(Cc3cccc(Cl)c3)cn2)nc1 [Compound 129, N-(5-(3-chlorobenzyl)pyridin-2-yl)-5-cyanopicolinamide] |  | 
10 nM | 10 nM | O=C(Nc1ccc(Cc2cccc(Cl)c2)cn1)c1ccc(CO)nn1 [Compound 122, N-(5-(3-chlorobenzyl)pyridin-2-yl)-6-(hydroxymethyl)pyridazine-3-carboxamide] |  | 
10 nM | 10 nM | O=C(Nc1ccc(CO)nc1)c1ccc(Cc2cccc(F)c2)cn1 [Compound 125, 5-(3-Fluorobenzyl)-N-(6-(hydroxymethyl)pyridin-3-yl)picolinamide] |  | 
10 nM | 180 nM | Cn1cc(C(=O)Nc2ccc(Cc3cccc(Cl)c3)cn2)cc(F)c1=O [Compound 128, N-(5-(3-chlorobenzyl)pyridin-2-yl)-5-fluoro-1-methyl-6-oxo-1,6-dihydropyridine-3-carboxamide] |  | 
10 nM | 10 nM | O=C(Nc1ccc(CO)nc1)c1ccc(Cc2cccc(Cl)c2)cn1 [Compound 132, 5-(3-Chlorobenzyl)-N-(6-(hydroxymethyl)pyridin-3-yl)picolinamide] |  | 
10 nM | 190 nM | O=C(Nc1ccc(Cc2cccc(Cl)c2)cn1)c1ccc2nncn2c1 [Compound 146, N-(5-(3-chlorobenzyl)pyridin-2-yl)-[1,2,4]triazolo[4,3-a]pyridine-6-carboxamide] |  | 
10 nM | 20 nM | O=C(Nc1ccc2nncn2c1)c1ccc(Cc2cccc(Cl)c2)cn1 [Compound 150, N-([1,2,4]triazolo[4,3-a]pyridin-6-yl)-5-(3-chlorobenzyl)picolinamide trifluoroacetic Acid] |  | 
